These results are taken from ChEMBL document CHEMBL1139164, “Optimization of halopemide for phospholipase D2 inhibition” (Bioorg Med Chem Lett, 2007).

The nature of data set [1]: Cmax in rat at 5 mg/kg, po or 1 mg/kg, iv. The data set is classed as ADME, organism-based. Particulars: in vivo.
The next data set concerns Rattus norvegicus. Kind of data set: AUC in rat at 5 mg/kg, po or 1 mg/kg, iv. The data set is classed as ADME, organism-based, Plasma. The following applies: in vivo.
Data set [2] can be described thus: Clearance in rat at 5 mg/kg, po or 1 mg/kg, iv. In kind it is ADME, organism-based. Particulars: in vivo.
Data set [3] deals with T1, Phospholipase D2 (Homo sapiens, UniProt O14939).
Data set [4] in a line: Half life in rat at 5 mg/kg, po or 1 mg/kg, iv. In kind it is ADME, organism-based. Particulars: in vivo.
The nature of data set [5]: Oral bioavailability in rat at 5 mg/kg. In kind it is ADME, organism-based. Particulars: in vivo.
Data set [6] has as its target T1, Phospholipase D2. Kind of data set: Inhibition of PLD2 at 1 uM.

T1 sequence (O14939 whole entry): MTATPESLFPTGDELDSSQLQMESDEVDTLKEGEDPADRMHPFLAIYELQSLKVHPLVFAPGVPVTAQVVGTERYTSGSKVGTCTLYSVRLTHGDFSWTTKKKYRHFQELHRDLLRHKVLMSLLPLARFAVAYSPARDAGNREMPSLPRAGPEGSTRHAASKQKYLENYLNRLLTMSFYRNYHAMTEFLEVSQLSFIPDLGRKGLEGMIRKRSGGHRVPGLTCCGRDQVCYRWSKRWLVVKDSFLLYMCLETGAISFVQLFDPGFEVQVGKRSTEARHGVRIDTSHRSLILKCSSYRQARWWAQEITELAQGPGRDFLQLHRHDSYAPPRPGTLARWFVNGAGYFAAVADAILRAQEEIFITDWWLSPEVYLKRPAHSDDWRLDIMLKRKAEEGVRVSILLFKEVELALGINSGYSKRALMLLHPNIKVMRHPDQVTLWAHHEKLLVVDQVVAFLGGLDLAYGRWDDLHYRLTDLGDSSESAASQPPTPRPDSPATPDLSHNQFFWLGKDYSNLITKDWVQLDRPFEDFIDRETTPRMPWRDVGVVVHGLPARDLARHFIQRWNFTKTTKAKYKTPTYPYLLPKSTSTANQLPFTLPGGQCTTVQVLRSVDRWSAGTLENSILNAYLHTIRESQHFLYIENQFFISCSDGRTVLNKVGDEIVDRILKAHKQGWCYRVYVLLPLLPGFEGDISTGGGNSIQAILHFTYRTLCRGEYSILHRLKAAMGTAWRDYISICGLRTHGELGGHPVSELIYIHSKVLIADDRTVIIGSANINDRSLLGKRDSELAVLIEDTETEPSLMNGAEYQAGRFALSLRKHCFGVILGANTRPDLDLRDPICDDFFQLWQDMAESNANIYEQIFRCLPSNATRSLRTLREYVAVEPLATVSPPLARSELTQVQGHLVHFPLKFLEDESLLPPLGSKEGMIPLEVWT

Broadly, the Cmax is the peak of the concentration-time curve. The IC50 is the midpoint of a concentration-inhibition curve. The low end stands for greater potency, the high end for weaker potency. The term half-life denotes how long it takes for the measured level to halve. One may read the bioavailability as dose-corrected exposure relative to a reference, in per cent. With `O=C(NCCN1CCC(n2c(=O)[nH]c3ccccc32)CC1)c1cc2cc(F)ccc2[nH]1`, the concentration in data set [1] peaked (Cmax) at 363 nM. The AUC with Rattus norvegicus came out at 1.03 uM.hr/L. Besides, the clearance in data set [2] was 36.3 mL/min/kg. Further, on Phospholipase D2 [3], the IC50 is 20 nM. For the same compound, the half-life in data set [4] was 5.57 h. The compound also displayed a bioavailability in data set [5] of 18.5%.

The inhibition is the relative decrease from the control value, in per cent. Low readings indicate little suppression, high ones strong suppression. For `CC(C)CC(=O)NCCN1CCC(n2c(=O)[nH]c3ccccc32)CC1`, on Phospholipase D2 [6], the inhibition is 0%.

Compound `O=C(NCCN1CCC(n2c(=O)[nH]c3ccccc32)CC1)c1ccsc1` registered an IC50 against Phospholipase D2 [3] of 1000 nM.

`O=C(Cc1ccc(F)cc1)NCCN1CCC(n2c(=O)[nH]c3ccccc32)CC1` registered an inhibition against Phospholipase D2 [6] of 0%.

The compound `O=C(NCCN1CCC(n2c(=O)[nH]c3ccccc32)CC1)c1ccc(F)cc1` showed an IC50 against Phospholipase D2 [3] of 1410 nM.

For the compound `O=C(CCc1ccc(F)cc1)NCCN1CCC(n2c(=O)[nH]c3ccccc32)CC1`, the inhibition on Phospholipase D2 [6] is 0%.

In the case of `O=C(NCCN1CCC(n2c(=O)[nH]c3ccccc32)CC1)c1cc2ccccc2[nH]1`, 20 nM corresponded to half-maximal inhibition at Phospholipase D2 [3] (IC50).

`O=C(NCCN1CCC(n2c(=O)[nH]c3ccccc32)CC1)c1ccccc1` registered an IC50 against Phospholipase D2 [3] of 1500 nM.

The compound `O=C(NCCN1CCC(n2c(=O)[nH]c3ccccc32)CC1)OCc1ccccc1` registered an inhibition on Phospholipase D2 [6] of 0%.

With `Cn1c(C(=O)NCCN2CCC(n3c(=O)[nH]c4ccccc43)CC2)cc2ccccc21`, the inhibition against Phospholipase D2 [6] was determined as 0%.

As to `CC(C)C(=O)NCCN1CCC(n2c(=O)[nH]c3ccccc32)CC1`, on Phospholipase D2 [6], the inhibition is 0%.

`O=C(NCCN1CCC(n2c(=O)[nH]c3ccccc32)CC1)c1cc2ccccc2s1`: half-maximal inhibition against Phospholipase D2 [3] (IC50) required 2000 nM.
